# Data as given in US9814754B2, “Combinations with a backbone-cyclized peptide” (POLYPHOR AG, priority 2012, dated 2017).
# Key:
# Format in all cases: in vivo
# [1] = test system: Pseudomonas aeruginosa clinical isolate PA18298; assay: Murine pneumonia model, compound 1 in combination with amikacin (Example 4); conditions: lung
# Procedure: The efficacy and ED50 of the compound of formula (I) (“compound 1”) in combination with amikacin was determined against Pseudomonas aeruginosa clinical isolate PA18298 in a pneumonia model in mice. Colony counts in lung were determined at 20 hours post treatment.
# (§1) Fresh overnight colonies of PA18298 from a 5% Horse Blood Agar plate were suspended in 0.9% sterile saline to approximately 10^8 CFU/ml and further diluted to approximately 5×10^7 CFU/ml. Female mice (DBA/2, outbred, 18-22 g, Charles River) were anesthetized with 0.1 ml of Zoletil and inoculated via the nose with a pipette with 0.05 ml of the bacteria suspension containing approximately 10^6 CFU. 4 hours after inoculation, the mice were treated orally with 45 μl neurophen (20 mg ibuprofen/ml corresponding to approximately 30 mg/kg) as pain relief.
# (§2) 175 mg of amikacin (Sigma) were dissolved in 5 ml 0.9% sterile saline to a concentration of 35 mg/ml and further diluted with saline to 3 mg/ml. The mice were treated subcutaneously with 0.2 ml in the neck region with a single dose at 3 hours post infection corresponding to 30 mg/kg on the basis of a mean animal weight of 20 g.
# One vial containing 10 mg of active compound 1 was dissolved in 2 ml 0.9% sterile saline to a concentration of 5 mg/ml and further diluted with saline […], 1, 0.55, 0.275 and 0.137 mg/ml. The mice were treated subcutaneously with 0.2 ml in the neck region with a single dose at 4 hours post infection with a dose calculation based on a mean animal weight of 20 g. Colistin was used as a control in the same manner with a fixed dose of 20 mg/kg.
# (§3) Colony counts were determined post inoculation at 4 hours (untreated mice) and 24 hours (treated and vehicle-only treated mice). Immediately after the mice were sacrificed, the lungs were collected and frozen at −20° C. After thawing, the organs were homogenized in 1 ml 0.9% saline. Each sample was then 10 fold diluted in saline and 20 μl spots were applied on blood agar plates. All agar plates were incubated 18-24 hours at 35° C. in ambient air.
# The CFU/ml in the inoculum was determined to 7.4 log10 CFU/ml corresponding to 6.17 log10 CFU/mouse.
# At 4 hours after inoculation the mean log 10 CFU/lung was 5.06 and the CFU level declined to 1.55 mean log 10 CFU/lung after 24 hours in the vehicle group.
# [2] = test system: Pseudomonas aeruginosa clinical isolate PAX11045; assay: Murine pneumonia model, compound 1 in combination with azithromycin (Example 2); conditions: 50 mg/kg alone, lung
# Procedure: The efficacy and ED50 of the compound of formula (I) (“compound 1”) in combination with azithromycin was determined against Pseudomonas aeruginosa clinical isolate PAX11045 in a pneumonia model in mice. Colony counts in lung were determined at 20 hours post treatment.
# as §1, with “PAX11045” for “PA18298”, “17-23” for “18-22”
# as §2, with “480 mg” for “175 mg”, “of azithromycin (Zitromax™, Pfizer)” for “of amikacin (Sigma)”, “in 4.8” for “in 5”, “of 100” for “of 35”, “to 5” for “to 3”, “to 50” for “to 30”
# (§4) The mice were treated subcutaneously with 0.2 ml in the neck region with a single dose at 4 hours post infection with a dose calculation based on a mean animal weight of 20 g.
# as §3
# [3] = test system: Pseudomonas aeruginosa clinical isolate PAX11045; assay: Murine pneumonia model, compound 1 in combination with ertapenem (Example 1); conditions: 50 mg/kg alone, lung, p<0.001
# Procedure: The efficacy and ED50 of the compound of formula (I) (“compound 1”) in combination with ertapenem was determined against Pseudomonas aeruginosa clinical isolate PAX11045 in a pneumonia model in mice. Colony counts in lung were determined at 20 hours post treatment.
# as §1, with “PAX11045” for “PA18298”
# 1 g of ertapenem (Invanz™, MSD Denmark Aps) was dissolved in 10 ml 0.9% sterile saline to a concentration of 100 mg/ml and further diluted with saline to 5 mg/ml. The mice were treated subcutaneously with 0.2 ml in the neck region with a single dose at 3 hours post infection corresponding to 50 mg/kg on the basis of a mean animal weight of 20 g.
# as §4, §3
# The CFU/ml in the inoculum was determined to 7.65 log10 CFU/ml corresponding to 6.35 log10 CFU/mouse.
# At 4 hours after infection the mean log10 CFU/lung was 5.14 and the CFU level remained at a similar level after 24 hours in the vehicle-only group.
# [4] = test system: Pseudomonas aeruginosa clinical isolate PA9349; assay: Murine pneumonia model, compound 1 in combination with ciprofloxacin (Example 3); conditions: colistin 20 mg/kg alone, lung
# Procedure: Colony counts in lung were determined at 20 hours post treatment.
# Fresh overnight colonies of PA9349 from a 5% Horse Blood Agar plate were suspended in 0.9% sterile saline to approximately 10^8 CFU/ml and further diluted to approximately 10^7 CFU/ml. Female mice (C57BL/6 […], outbred, 20-25 g, Hellenic Pasteur Institute) were anesthetized with ether and inoculated via the nose with a pipette with 0.05 ml of the bacteria suspension containing approximately 10^6 CFU. After inoculation, mice were treated with paracetamol suppositories as a pain relief.
# The mice were treated subcutaneously with 0.2 ml in the neck region with a single dose at 3 hours post infection corresponding to 20 mg/kg on the basis of a mean animal weight of 20 g.
# 1 vial was further diluted with saline to 1, 0.8 and 0.4 mg/ml. The mice were treated subcutaneously with 0.25 ml (25 mg/kg dose) or 0.2 ml (for all other doses) in the neck region with a single dose at 4 hours post infection with a dose calculation based on a mean animal weight of 20 g.
# as §3
# [5] = test system: Pseudomonas aeruginosa clinical isolate PA18298; assay: Murine pneumonia model, compound 1 alone (Reference 3); conditions: 20 mg/kg, positive control, lungs, p<0.001
# Procedure: Efficacy in Murine Pneumonia Model Against Pseudomonas aeruginosa PA18298 and Estimation of ED50
# The efficacy and ED50 of the compound of formula (I) (“compound 1”) was determined against Pseudomonas aeruginosa clinical isolate PA18298 in a pneumonia model in mice. Colony counts in the lungs were determined at 18-20 hours post treatment.
# as §1, with “4×10^7” for “5×10^7”, “Zoletil (tiletamine+zolazepam)” for “Zoletil”, “1×10^6” for “10^6”
# One vial containing 10 mg of active compound 1 was dissolved in 2 ml 0.9% sterile saline to a concentration of 5 mg/ml and was further diluted with saline to 2, 1, 0.75, 0.55, 0.275 and 0.137 mg/ml. The mice were treated subcutaneously with 0.2 ml in the neck region with a single dose at 4 hours post infection with a dose calculation based on a mean animal weight of 20 g. As positive control colistin was used in the same manner with a fixed dose of 20 mg/kg.
# as §3, with “10-fold” for “10 fold”, “18-48” for “18-24”
# The CFU/ml in the inoculum was determined to 7.49 log10 CFU/ml corresponding to 6.20 log10 CFU/mouse.
# At 4 hours after infection the mean log10 CFU/lung was 5.05 and the CFU level declined to 2.62 at 24 hours post inoculation in the vehicle-only group.
compound,measurement,setting,value
"NCC[C@H](O)C(=O)N[C@@H]1C[C@H](N)[C@@H](O[C@H]2O[C@H](CN)[C@@H](O)[C@H](O)[C@H]2O)[C@H](O)[C@H]1O[C@H]1O[C@H](CO)[C@@H](O)[C@H](N)[C@H]1O [amikacin, reference compound]",effect on bacterial loads,[1]; amikacin 30 mg/kg alone,some effects on reducing the bacterial loads
"CC[C@H]1OC(=O)[C@H](C)[C@@H](O[C@H]2C[C@@](C)(OC)[C@@H](O)[C@H](C)O2)[C@H](C)[C@@H](O[C@@H]2O[C@H](C)C[C@H](N(C)C)[C@H]2O)[C@](C)(O)C[C@@H](C)CN(C)[C@H](C)[C@@H](O)[C@]1(C)O [azithromycin, reference compound]",effect on bacterial loads,[2],no effect on the bacterial loads
"C[C@@H](O)[C@H]1C(=O)N2C(C(=O)O)=C(S[C@@H]3CN[C@H](C(=O)Nc4cccc(C(=O)O)c4)C3)[C@H](C)[C@H]12 [ertapenem, reference compound]",effect on bacterial loads,[3],significant effect on reducing the bacterial loads
colistin [reference compound],effect on bacterial loads,[4],no or only slight effects on the bacterial loads
same,effect on bacterial loads,"[1]; colistin 20 mg/kg, control",some effects on reducing the bacterial loads
same,effect on bacterial loads,[5],some effect on reducing the bacterial loads
